This note sets out measurements from patent US20120190751A1, “COMPOUNDS FOR TREATMENTS OF INFLAMMATION” (ANA-MAR AB, priority 2009, published 2012).

Entries after “also recorded” stand apart in the source; their conditions may differ.

Assay [1] addresses 5-HT1D receptor (Homo sapiens, UniProt P28221). The experiment in a line: Radio-ligand binding assay 5-HT1D. The following applies: 10 μM compound; [3H]-5-CT 2 nM; human cortex. On the procedure:
(§1) Determination of binding affinities for various 5-HT receptors was performed by radio-ligand binding assays. Briefly, tissue or cells expressing the receptor of interest were suspended in incubation buffer and radio-ligands and 10 μM N-(2-chloro-3,4-dimethoxybenzylidene-amino)guanidine were added. After incubation, separation of bound and free radio-ligand was done by multiple washings with buffer.
(§2) The results were presented as the percent inhibition of specific binding. The IC50 values were determined by a non-linear least square regression analysis using MathIQ™ (ID Business Solution Ltd., UK). The inhibition constants (Ki) were calculated using the equation of Cheng and Prusoff (Cheng Y, Prusoff W H, Biochem. Pharmacol. 22:3099-3108, 1973) using the observed IC50 of the tested compound, the concentration of radioligand employed in the assay and the historical values for the KD of the ligand.

In assay [2] the test system is rat synoviocytes. Briefly: IL-6 release from LPS-stimulated rat synoviocytes. The following applies: 72 hours. Type of assay: cell-based. The method, then: Pannus from the inflamed knee of rats with antigen-induced arthritis (AIA) (see description of this model below; Andersson, S. E et al., (1998), J. Rheumatology 25: 1772-1777) was isolated three to five days after challenge, stored in PBS supplemented with 100 U/ml Penicillin-Streptomycin (PEST, Invitrogen Corporation) and 2.5 μg/ml Fungizone (Amphotericin B, Invitrogen) until it was further processed within a couple of hours. The PBS was discarded and the tissue cut in small pieces followed by digestion in a collagenase solution (400 U/ml; type 1 CLS-1, Worthington) for 3 hours at 37° C., 5% CO2. The suspension was filtered through a nylon mesh (70 μm), washed with tissue culture medium (RPMI-1640 with L-glutamine, Invitrogen, supplemented with 10% fetal bovine serum (FBS) and 100 U/ml PEST and 2.5 μg/ml Fungizone) and centrifuged (257 g). The cells were resuspended in tissue culture medium and seeded in cell culture flasks (T25, TPP). After overnight culture, nonadherent cells were removed by exchanging the medium, the cells were incubated at 37° C., 5% CO2, the medium was exchanged every third day until confluence was reached (7-10 days). The culture consisted of a mixed cell population with the principal constituents being fibroblasts and macrophages (Andersson, S. E. et al. (2000), Eur. J. Pharm. Sci 9: 333-343).
The cells were counted and reseeded at a density of 10000 cells/0.2 ml in 96-well cell culture plates (Nunc). After overnight culture the cells were stimulated with 50 ng/ml Lipopolysaccharide (LPS, E. coli 055:B5, Sigma) with simultaneous addition of 0.1, 1 and 10 μM N-(2-chloro-3,4-dimethoxybenzylideneamino)guanidine and 1 μM of 5-HT2 receptor agonists (triplicates). The cells were incubated for 72 hours after which the supernatants were collected and analyzed for IL-6 (OptEIA™ Set Rat IL-6). The effect of treatment on cell viability was determined using the cell proliferation reagent, WST-1 (Roche Diagnostics).
Inflamed knee joints of rats with antigen-induced arthritis (AIA) were dissected four days after intra-articular challenge with antigen. Freshly isolated pannus tissue was collected in phosphate-buffered saline (PBS) supplemented with 100 U/ml penicillin, streptomycin (PEST, Invitrogen) and 2.5 μg/ml Fungizone (Amphotericin B, Invitrogen), finely minced with a pair of scissors and digested with 400 U/ml collagenase (type 1 CLS-1, Worthington) in RPMI 1640 (Gibco) supplemented with PEST and fungizone (2.5 μg/ml) for 3 hours. The cell suspension was filtered through a 70 μm nylon mesh and the cells collected by centrifugation at 257×g, 10 min. The cells were resuspended in RPMI 1640 supplemented with 10% FBS (Gibco), PEST and fungizone (culture medium), plated in T25 flasks (TPP Cat#90026). After overnight incubation nonadherent cells were removed and the culture medium was replaced every third day until the cells approached confluency (normally achieved within 7-10 days). At near-confluency, the cells were washed with PBS and harvested by trypsination. After washing in PBS the cells were resuspended in culture medium and seeded at 10.000 cells/well/0.2 ml in 96 well plates (Nunc cat#167008). After overnight culture the culture medium was replaced with fresh medium and 50 ng/ml LPS (Sigma, L6529) together with different concentrations of 5-HT, 5-HT2 receptor agonists and/or antagonists and N-(2-chloro-3,4-dimethoxybenzylideneamino)guanidine. The cells were incubated for 72 hours after which the supernatants were collected and analyzed for IL-6 (BD OptEIA™ Set). The effect of treatment on cell viability was determined using the cell proliferation reagent, WST-1 (Roche Diagnostics). In another experiment rat synoviocytes were incubated with 50 ng/ml LPS for 2 or 22 hours were after the levels of 5-HT was analysed in the cell culture medium using a Serotonin ELISA kit (IBL International, RE59121). We also incubated rat synoviocytes with 5-HT (10 μM) and measured the gene expression of 5-HT2B and 5-HT2C.

Assay [3] deals with 5-HT6 receptor (Homo sapiens, UniProt P50406). Briefly: Radio-ligand binding assay 5-HT6. As to conditions: 10 μM compound; [3H] LSD 1.5 nM; human rec. HEK293 cells. On the procedure: as §1, §2
The target in assay [4] is T1, 5-HT1A receptor (Homo sapiens, UniProt P08908).
T1 sequence (P08908 1-422): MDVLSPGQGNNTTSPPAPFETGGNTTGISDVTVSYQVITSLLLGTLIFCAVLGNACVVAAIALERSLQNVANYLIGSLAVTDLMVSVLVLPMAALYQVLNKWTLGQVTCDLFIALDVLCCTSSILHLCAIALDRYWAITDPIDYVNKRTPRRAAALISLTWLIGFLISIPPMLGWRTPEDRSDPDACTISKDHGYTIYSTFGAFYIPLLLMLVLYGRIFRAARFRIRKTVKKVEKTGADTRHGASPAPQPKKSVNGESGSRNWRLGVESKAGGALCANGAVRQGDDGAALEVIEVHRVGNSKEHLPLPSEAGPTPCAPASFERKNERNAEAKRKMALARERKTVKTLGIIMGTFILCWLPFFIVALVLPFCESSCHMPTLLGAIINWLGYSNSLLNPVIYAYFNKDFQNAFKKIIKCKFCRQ
Briefly: Radio-ligand binding assay 5-HT1A. The following applies: 10 μM compound; [3H]-8-OH-DPAT 0.5 nM; human rec. HEK293 cells. The method, then: as §1, §2

Chain of 5-HT1D receptor (P28221 whole entry): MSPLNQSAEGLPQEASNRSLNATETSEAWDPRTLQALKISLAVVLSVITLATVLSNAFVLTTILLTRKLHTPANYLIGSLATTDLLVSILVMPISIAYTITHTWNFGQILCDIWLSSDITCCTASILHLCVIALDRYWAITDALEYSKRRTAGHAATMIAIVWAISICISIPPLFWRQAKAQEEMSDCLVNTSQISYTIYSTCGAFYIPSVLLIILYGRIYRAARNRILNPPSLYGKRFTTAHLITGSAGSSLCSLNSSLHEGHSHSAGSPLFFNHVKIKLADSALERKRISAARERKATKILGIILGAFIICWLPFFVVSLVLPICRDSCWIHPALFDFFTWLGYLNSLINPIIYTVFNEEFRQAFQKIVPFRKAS
Chain of 5-HT6 receptor (P50406 whole entry): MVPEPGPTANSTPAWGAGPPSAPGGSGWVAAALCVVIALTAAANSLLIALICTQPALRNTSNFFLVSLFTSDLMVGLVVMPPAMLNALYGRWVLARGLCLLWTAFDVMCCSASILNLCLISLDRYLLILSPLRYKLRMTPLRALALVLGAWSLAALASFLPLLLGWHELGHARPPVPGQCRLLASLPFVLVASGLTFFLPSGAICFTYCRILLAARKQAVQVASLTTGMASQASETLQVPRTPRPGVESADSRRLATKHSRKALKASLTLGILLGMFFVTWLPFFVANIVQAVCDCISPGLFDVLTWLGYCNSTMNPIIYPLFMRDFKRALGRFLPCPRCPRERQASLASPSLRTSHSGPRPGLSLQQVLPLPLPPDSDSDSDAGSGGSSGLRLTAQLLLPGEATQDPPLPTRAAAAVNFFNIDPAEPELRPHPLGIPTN

The inhibition is the drop in the measured response relative to a control, in per cent. In the case of `COc1ccc(C=NNC(=N)N)c(Cl)c1OC` [N-(2-chloro-3,4-dimethoxybenzylideneamino)guanidine], the values for the inhibition at 10 µM in assay [1], in assay [3] and in assay [4] were -5.7%, 2.6% and 17%, respectively. The “IL-6 release induced by 5-HT and LPS” value in assay [2] (1 μM 5-HT + LPS 50 ng/ml, test substance 0.1, 1 or 10 μM, FIG. 7A) is “reduces the IL-6 response”. For the same molecule, the “IL-6 production induced by BW 723C86 (5-HT2B agonist) and LPS” value in assay [2] (1 μM BW 723C86 + LPS 50 ng/ml, compound 0.1, 1, 10 μM, FIG. 4, FIG. 7B) is on record as “in a dose-dependent way is counteracted; also recorded: reversed the effects”. Further, the “IL-6 production induced by CP 809101 (5-HT2C agonist) and LPS” value in assay [2] (1 μM CP 809101 + LPS 50 ng/ml, compound 0.1, 1, 10 μM, FIG. 4, FIG. 7B) is recorded as “is counteracted; also recorded: reversed the effects”.
